Consider 10 compounds from ChEMBL document CHEMBL5303304, “EUbOPEN Chemogenomics Library - IncuCyte” (2023).

Common to all, as to assay type: toxicity, cell-based
One data set deals with Fibroblast. As to the kind of experiment: Incucyte cell viability with human fibroblast. As to conditions: 10 µM, compound concentration 10 uM.
Another data set deals with HEK-293T. As to the kind of experiment: Incucyte cell viability with HEK293T. As to conditions: human, 10 µM, compound concentration 10 uM.
The next data set has as its system U2OS. As to the kind of experiment: Incucyte cell viability with U2OS. As to conditions: human, 10 µM, compound concentration 10 uM.
Further: unitless GR value; below 1 slowed growth and below 0 cell loss.

Regarding `CCOC(=O)C1Cc2ccccc2CN1C(=O)c1ccc(SC)s1` (centres undefined), the “Growth Rate” value amounted to 0.06 in the data set with Fibroblast (6 h, replicate number 2); 0.66 with Fibroblast (12 h, replicate number 1); 0.1 with Fibroblast (12 h, replicate number 2); 0.58 with Fibroblast (18 h, replicate number 1); 0.63 in the data set on Fibroblast (18 h, replicate number 2); 0.86 with Fibroblast (24 h, replicate number 1). Moreover, the “Growth Rate” value is given as 0.67 with Fibroblast (24 h, replicate number 2); -0.82 with HEK-293T (0 h, replicate number 2); 0.05 in the data set on HEK-293T (6 h, replicate number 1); 0.28 with HEK-293T (6 h, replicate number 2); 0.12 in the data set on HEK-293T (12 h, replicate number 1); 0.49 in the data set with HEK-293T (12 h, replicate number 2). Besides, the “Growth Rate” value in the data set on HEK-293T (18 h, replicate number 1) was 0.47; with HEK-293T (18 h, replicate number 2) it was 0.5; in the data set on HEK-293T (24 h, replicate number 1), 0.41; in the data set with HEK-293T (24 h, replicate number 2), 0.5; in the data set on U2OS (6 h, replicate number 1) it was 0.96; with U2OS (6 h, replicate number 2), 0.87. The “Growth Rate” value with U2OS (18 h, replicate number 2) was 0.98; in the data set with U2OS (24 h, replicate number 2), 0.88.
For `COc1cc(CN(CCN)C(=O)N[C@@H](C)c2ccccc2)ccc1OCc1ccccc1.Cl`, the “Growth Rate” value is -1 with Fibroblast (0 h, replicate number 1); 0.29 in the data set on Fibroblast (6 h, replicate number 1); 0.94 with Fibroblast (12 h, replicate number 1); 0.41 in the data set on Fibroblast (12 h, replicate number 2); 0.87 in the data set on Fibroblast (18 h, replicate number 1); 0.71 with Fibroblast (18 h, replicate number 2). Besides, the “Growth Rate” value is reported as 0.72 in the data set on Fibroblast (24 h, replicate number 1); 0.83 in the data set with Fibroblast (24 h, replicate number 2); 0.77 in the data set on HEK-293T (12 h, replicate number 2); 0.81 with HEK-293T (18 h, replicate number 2); 0.74 with HEK-293T (24 h, replicate number 2); -0.64 in the data set on U2OS (0 h, replicate number 1). The “Growth Rate” value with U2OS (0 h, replicate number 2) is -0.26; with U2OS (6 h, replicate number 1), 0.64; in the data set with U2OS (6 h, replicate number 2) it was 0.82; in the data set on U2OS (12 h, replicate number 1), 0.69; in the data set on U2OS (18 h, replicate number 1), 0.98; in the data set with U2OS (18 h, replicate number 2) it was 0.92. In addition, the “Growth Rate” value in the data set with U2OS (24 h, replicate number 1) was 0.79; in the data set with U2OS (24 h, replicate number 2) it was 1.
Regarding `COc1cc2ncnc(Nc3cccc(O)c3)c2cc1OC`, the “Growth Rate” value in the data set with Fibroblast (0 h, replicate number 1) is -1; with Fibroblast (0 h, replicate number 2), 0.07; with HEK-293T (6 h, replicate number 1), 0.14; with HEK-293T (6 h, replicate number 2), 0.13; with HEK-293T (12 h, replicate number 1) it was 0.56; in the data set on HEK-293T (12 h, replicate number 2) it was 0.71. Also, the “Growth Rate” value is given as 0.96 in the data set on HEK-293T (18 h, replicate number 1); 0.75 with HEK-293T (18 h, replicate number 2); 0.77 in the data set with HEK-293T (24 h, replicate number 2); -0.82 in the data set with U2OS (0 h, replicate number 1); 0.98 in the data set with U2OS (6 h, replicate number 1); 0.55 in the data set with U2OS (6 h, replicate number 2). Further, the “Growth Rate” value with U2OS (12 h, replicate number 1) was determined as 0.83; with U2OS (12 h, replicate number 2), 0.75; in the data set on U2OS (18 h, replicate number 1) it was 0.88; with U2OS (18 h, replicate number 2), 0.69; in the data set with U2OS (24 h, replicate number 2), 0.84.
Regarding `COc1ccccc1[C@@H]1CNCCC12CCN(C(=O)[C@](OC)(c1ccccc1)C(F)(F)F)CC2`, the “Growth Rate” value with Fibroblast (0 h, replicate number 1) was -1; in the data set with Fibroblast (6 h, replicate number 1), 0.9; with Fibroblast (12 h, replicate number 1) it was 0.93; with Fibroblast (12 h, replicate number 2) it was 0.7; in the data set on Fibroblast (18 h, replicate number 1), 0.54; in the data set with Fibroblast (18 h, replicate number 2), 0.97. In addition, the “Growth Rate” value was found to be 0.63 in the data set with Fibroblast (24 h, replicate number 1); 0.68 with Fibroblast (24 h, replicate number 2); 0.43 with HEK-293T (12 h, replicate number 1); 0.28 with HEK-293T (18 h, replicate number 1); 0.64 in the data set with HEK-293T (18 h, replicate number 2); 0.22 with HEK-293T (24 h, replicate number 1). The “Growth Rate” value is 0.34 in the data set with HEK-293T (24 h, replicate number 2); -0.8 in the data set with U2OS (0 h, replicate number 1); 0.59 with U2OS (0 h, replicate number 2); 0.37 in the data set with U2OS (6 h, replicate number 1); 0.85 in the data set on U2OS (12 h, replicate number 1); 0.73 in the data set with U2OS (18 h, replicate number 1). Moreover, the “Growth Rate” value with U2OS (18 h, replicate number 2) was found to be 0.99; with U2OS (24 h, replicate number 1) it was 0.53; in the data set on U2OS (24 h, replicate number 2), 0.82.
Regarding `CN(C)c1cc2c(Nc3ccc4c(cnn4Cc4ccccc4)c3)ncnc2cn1` [GW282974X], the “Growth Rate” value with Fibroblast (0 h, replicate number 1) is -1; with Fibroblast (18 h, replicate number 2), 0.86; with Fibroblast (24 h, replicate number 1), 0.77; in the data set on Fibroblast (24 h, replicate number 2) it was 0.69; in the data set with HEK-293T (0 h, replicate number 1), -1; in the data set on HEK-293T (0 h, replicate number 2), -0.53. Besides, the “Growth Rate” value in the data set with HEK-293T (12 h, replicate number 2) is 0.95; in the data set with HEK-293T (18 h, replicate number 1) it was 0.8; in the data set with HEK-293T (18 h, replicate number 2), 0.77; in the data set with HEK-293T (24 h, replicate number 1) it was 0.59; in the data set with HEK-293T (24 h, replicate number 2) it was 0.61; with U2OS (0 h, replicate number 1), -0.05. Besides, the “Growth Rate” value in the data set with U2OS (6 h, replicate number 2) worked out at 0.77; with U2OS (12 h, replicate number 1) it was 0.77; in the data set on U2OS (12 h, replicate number 2), 0.87; in the data set on U2OS (18 h, replicate number 1), 0.83; in the data set with U2OS (18 h, replicate number 2), 0.91; in the data set with U2OS (24 h, replicate number 2) it was 0.65.
For `COc1cc2ncnc(N[C@H](C)c3ccccc3)c2cc1OC1CCN(S(C)(=O)=O)CC1.Cl`, the “Growth Rate” value is on record as 0.4 in the data set on Fibroblast (0 h, replicate number 1); 0.39 with Fibroblast (6 h, replicate number 2); 0.61 in the data set on Fibroblast (12 h, replicate number 2); 0.37 in the data set with HEK-293T (0 h, replicate number 1); -0.04 in the data set on HEK-293T (0 h, replicate number 2); 0.89 in the data set with HEK-293T (12 h, replicate number 2). The “Growth Rate” value is recorded as 0.65 with U2OS (0 h, replicate number 1); 0.77 in the data set on U2OS (6 h, replicate number 1); 0.89 in the data set with U2OS (12 h, replicate number 1); 0.8 in the data set on U2OS (18 h, replicate number 1); 0.74 with U2OS (24 h, replicate number 1).
Regarding `COc1cc2c(NC3CCN(C(C)C)CC3)nc(C3CCCCC3)nc2cc1OCCCN1CCCC1`, the “Growth Rate” value is recorded as -0.16 in the data set with Fibroblast (6 h, replicate number 1); -0.65 in the data set with Fibroblast (6 h, replicate number 2); -0.07 in the data set with Fibroblast (12 h, replicate number 1); -0.48 in the data set on Fibroblast (12 h, replicate number 2); -0.27 in the data set on Fibroblast (18 h, replicate number 1); -0.46 in the data set with Fibroblast (18 h, replicate number 2). The “Growth Rate” value in the data set with Fibroblast (24 h, replicate number 1) is listed as -0.35; in the data set with Fibroblast (24 h, replicate number 2) it was -0.46; in the data set on HEK-293T (0 h, replicate number 2), -1; with HEK-293T (6 h, replicate number 1), -0.49; in the data set on HEK-293T (6 h, replicate number 2), -0.51; in the data set on HEK-293T (12 h, replicate number 1), -0.43. Also, the “Growth Rate” value is listed as -0.45 with HEK-293T (12 h, replicate number 2); -0.39 in the data set on HEK-293T (18 h, replicate number 1); -0.38 in the data set on HEK-293T (18 h, replicate number 2); -0.26 in the data set on HEK-293T (24 h, replicate number 1); -0.39 with HEK-293T (24 h, replicate number 2); -0.98 in the data set on U2OS (0 h, replicate number 1). Moreover, the “Growth Rate” value in the data set with U2OS (0 h, replicate number 2) was 0.19; with U2OS (6 h, replicate number 1) it was 0.4; in the data set on U2OS (6 h, replicate number 2), 0.03; in the data set with U2OS (12 h, replicate number 1), 0.2; with U2OS (12 h, replicate number 2), -0.13; in the data set with U2OS (18 h, replicate number 1), 0.05. For the same compound, the “Growth Rate” value with U2OS (18 h, replicate number 2) is recorded as -0.16; with U2OS (24 h, replicate number 1), -0.01; in the data set on U2OS (24 h, replicate number 2), -0.23.
Consider `CCC(=O)O[C@]1(C(=O)CCl)[C@@H](C)C[C@H]2[C@@H]3CCC4=CC(=O)C=C[C@]4(C)[C@@]3(F)[C@@H](O)C[C@@]21C` [CLOBETASOL PROPIONATE], for which the “Growth Rate” value in the data set on Fibroblast (6 h, replicate number 1) is given as 0.53; in the data set with Fibroblast (12 h, replicate number 1), -1; in the data set with HEK-293T (6 h, replicate number 1), 0.7; in the data set with HEK-293T (6 h, replicate number 2) it was 1; in the data set on U2OS (0 h, replicate number 2), -0.24; in the data set on U2OS (6 h, replicate number 1), -0.15. For the same compound, the “Growth Rate” value in the data set with U2OS (6 h, replicate number 2) is recorded as 0.94; with U2OS (12 h, replicate number 1), 0.77; with U2OS (12 h, replicate number 2), 0.76; in the data set on U2OS (18 h, replicate number 1), 0.92; with U2OS (18 h, replicate number 2), 0.88; in the data set on U2OS (24 h, replicate number 1), 0.83.
Take `CN[C@@H](C)C(=O)N[C@H](C(=O)N1CCC[C@H]1C(=O)N[C@H]1c2ccccc2C[C@H]1OCC#CC#CCO[C@@H]1Cc2ccccc2[C@@H]1NC(=O)[C@@H]1CCCN1C(=O)[C@@H](NC(=O)[C@H](C)NC)C1CCCCC1)C1CCCCC1`: the “Growth Rate” value is given as 0.87 in the data set on Fibroblast (12 h, replicate number 1); 0.75 in the data set with Fibroblast (18 h, replicate number 1); 0.57 with Fibroblast (18 h, replicate number 2); 0.63 with Fibroblast (24 h, replicate number 1); 0.43 in the data set on Fibroblast (24 h, replicate number 2); -0.94 in the data set on HEK-293T (0 h, replicate number 2). For the same compound, the “Growth Rate” value is given as 0.13 in the data set on HEK-293T (6 h, replicate number 1); 0.46 in the data set on HEK-293T (6 h, replicate number 2); -0.41 in the data set with HEK-293T (12 h, replicate number 1); -0.22 in the data set on HEK-293T (12 h, replicate number 2); -0.17 in the data set on HEK-293T (18 h, replicate number 1); 0.01 with HEK-293T (18 h, replicate number 2). Further, the “Growth Rate” value in the data set with HEK-293T (24 h, replicate number 1) is given as -0.12; in the data set on HEK-293T (24 h, replicate number 2) it was 0.02; with U2OS (0 h, replicate number 1), 0.76; with U2OS (6 h, replicate number 1), 0.89; in the data set on U2OS (6 h, replicate number 2) it was 0.83; in the data set on U2OS (12 h, replicate number 2), 0.86. Also, the “Growth Rate” value is recorded as 0.87 with U2OS (18 h, replicate number 1); 0.86 in the data set on U2OS (18 h, replicate number 2); 0.89 in the data set on U2OS (24 h, replicate number 1).
For `CN(C)CCOc1ccc(/C(=C(/CCCO)c2ccccc2)c2ccc(O)cc2)cc1`, the “Growth Rate” value in the data set with Fibroblast (0 h, replicate number 1) was 0.55; with Fibroblast (0 h, replicate number 2) it was -0.4; with Fibroblast (24 h, replicate number 1) it was 0.02; with HEK-293T (6 h, replicate number 2), 0.71; with U2OS (0 h, replicate number 2) it was -0.67; in the data set on U2OS (6 h, replicate number 1) it was 0.76. In the data set with U2OS (18 h, replicate number 1), the “Growth Rate” value amounted to 1.
